In experiment [1] the test system is RhoA. The experiment is described as follows: Active RhoA to total RhoA in Neuro2A cells (G-LISA, ELISA). To be noted: 48 hrs treatment, ratio of active RhoA to total RhoA as percentage of DMSO treatments, concentration not given. The class given is cell-based, mouse. As to the method:
Mouse neuroblastoma Neuro2A cells were cultured in DMEM supplemented with 10% FBS for 24 hrs. […] Cell lysates were quantified and subjected either to active RhoA assay using G-LISA RhoA activation Assay Biochem Kit (Cytoskeleton Inc), or to total RhoA assay using Total RhoA ELISA Kit (Cytoskeleton Inc). The results were calculated as ratio of active RhoA to total RhoA and averaged from 3 biological repeats of one experiment with background subtraction. The data was presented as percentage of DMSO treatments.

In experiment [2] the test system is HSP70. In words: HSP70 levels in Neuro 2a cells, ELISA. The format is cell-based, mouse. To be noted: 48 hrs compound then 24 hrs GGTI-298. As for the experimental part: Mouse neuroblastoma 2a cells were cultured in DMEM with 10% FBS for 24 hrs. […] After 24 hrs cells were harvested and lysates were prepared and analyzed by ELISA for HSP70. Compound ID numbers in table refer to structures in Table 1 and Table 2.

In experiment [3] the test system is Sprague Dawley rats. The experiment is described as follows: Kainic acid stereotactic hippocampus injection model, fraction of cells damaged. The class given is in vivo, rat. Conditions: KA at 72 hours. As to the method:
CNS-102 was administered orally to Sprague Dawley rats at 12 mg/kg. After dosing, KA was stereotactically injected into the hippocampus at 24, 48, 72, 96 and 168 hours to induce neuron damage. After 24 h, hippocampus tissue was collected, stained, and imaged. The scans were analyzed by Image J to calculate the fraction of cells having KA-induced damage. Average fraction damaged in the hippocampus from ten animals for each treatment (PBS vs. 12 mg/kg CNS-102) by time (24, 48, 72, 96 and 168 hours) combination was estimated with PROC MIXED in SAS. Comparisons of the CNS-102 treatment groups to the pooled PBS treatment at the different times can be made, giving the results tabulated below.
The fraction of cells damaged in the kainic acid model was determined on 130 rats, each receiving one dose of CNS-102 at either 0, 1, 3, 6, 12 or 24 mg/kg. PBS was used for dosing at 0 mg/kg. The linear model of the log10 percent damage versus concentration is graphically shown FIG. 5.
After dosing, KA was stereotactically injected into the hippocampus at 72 hours to induce neuron damage. After 24 h, hippocampus tissue was collected, stained, and imaged. The scans were analyzed by Image J to calculate the fraction of cells having KA-induced damage.
The indicated compounds or vehicle control were orally dosed to Sprague-Dawley rats, and Kainic acid was injected. After dosing, KA was stereotactically injected into the hippocampus at 72 hours to induce neuron damage. After 24 h, hippocampus tissue was collected, stained, and imaged. The scans were analyzed by Image J to calculate the fraction of cells having KA-induced damage. Neurons damaged by Kainic acid (mean of hippocampus CA3 neurons damaged) were quantified.

Experiment [4] deals with Rap1. In words: Prenylation of Rap1 in Neuro2A cells, western blotting. The class given is cell-based, mouse. To be noted: 100 nM; with GGTI-298; percentage of control (GGTI only). As for the experimental part:
Mouse neuroblastoma Neuro2A cells were cultured in DMEM supplemented with 10% FBS for 24 hrs. The cells were treated with 102GGA derivative compounds for 24 hrs first before GGTase inhibitor GGTI-298 was added to the culture medium for additional 24 hr incubation. […] Both un-prenylated and total Rap1 protein bands were quantified using Image J and normalized to their respective loading control GAPDH. The results for control and each compound treatment were calculated as the ratio of normalized un-prenylated Rap1 to total Rap1, and averaged from two biological repeats of one experiment. The final results were presented as a percentage of the control treatments (GGTI only) from the same batch experiment. The data shown in the chart were averaged from two repeats of one experiment and presented as the ratio of normalized un-prenylated Rap1 to total Rapt Compound ID numbers in table refer to structures in Table 1 and Table 2.
Background: In western blotting, separated proteins are transferred to a membrane and probed.

For the molecule `CC(C)=CCC/C(C)=C/CC/C(C)=C/CC/C(C)=C/C1=N[C@H](C(C)C)C(=O)O1` [Compound 37a, (R)-4-isopropyl-2-((1E,5E,9E)-2,6,10,14-tetramethylpentadeca-1,5,9,13-tetraen-1-yl)oxazol-5(4H)-one], in experiment [1], the “% Relative RhoGTPase Activity” value was found to be 106.8%. Also, the “HSP70 level, ELISA signal (absence of compounds normalized as 1.00)” value in experiment [2] (100 nM) came to 1.04; in experiment [2] (10uM) it was 1.10.

`CC(C)=CCC/C(C)=C/CC/C(C)=C/CC/C(C)=C/COC(=S)NCCN1CCCCC1` [Compound 10l, Piperidinyl-2′-ethyl 2E,6E,10E-geranylgeranyl thiocarbamate]: the “Mean of Hippocampus CA3 Neurons Damaged” value in experiment [3] (20 mg/kg oral) is 14%. Further, in experiment [4], the “unprenylated/total RAP1 (%)” value is recorded as 164%. For the same molecule, the “HSP70 level, ELISA signal (absence of compounds normalized as 1.00)” value in experiment [2] (100 nM) was found to be 1.16; in experiment [2] (10uM), 1.37.

Take `CC(C)=CCC/C(C)=C/CC/C(C)=C/CC/C(C)=C/COC(=O)Nc1ccc2ccccc2c1` [Compound 7s, 2′-Naphthyl 2E, 6E, 10E-geranylgeranyl carbamate]: the “unprenylated/total RAP1 (%)” value in experiment [4] was 89%. In addition, in experiment [1], the “% Relative RhoGTPase Activity” value was 86.9%. In experiment [2] (10uM), the “HSP70 level, ELISA signal (absence of compounds normalized as 1.00)” value is recorded as 1.10.

Take `CC(C)=CCC/C(C)=C/CC/C(C)=C/CC/C(C)=C/c1nnc(-c2ccc(C)cc2)o1` [Compound 29b, 2-((1E,5E,9E)-2,6,10,14-tetramethylpentadeca-1,5,9,13-tetraen-1-yl)-5-(p-tolyl)-1,3,4-oxadiazole]: the “unprenylated/total RAP1 (%)” value in experiment [4] stood at 49%. For the same molecule, the “% Relative RhoGTPase Activity” value in experiment [1] is on record as 96.1%. Besides, the “HSP70 level, ELISA signal (absence of compounds normalized as 1.00)” value in experiment [2] (100 nM) worked out at 1.11; in experiment [2] (10uM) it was 1.17.

`COc1ccc(NC(=O)OC/C=C(\C)CC/C=C(\C)CC/C=C(\C)CCC=C(C)C)c(OC)c1` [Compound 7w, 2′,4′-Dimethoxyphenyl 2E, 6E, 10E-geranylgeranyl carbamate]: in experiment [4], the “unprenylated/total RAP1 (%)” value is 77%. Besides, the “% Relative RhoGTPase Activity” value in experiment [1] was 94.4%. Moreover, the “HSP70 level, ELISA signal (absence of compounds normalized as 1.00)” value in experiment [2] (100 nM) came out at 1.14.

In the case of `CCNC(=S)OC/C=C(\C)CC/C=C(\C)CC/C=C(\C)CCC=C(C)C` [Compound 10b, Ethyl 2E,6E,10E-geranylgeranyl thiocarbamate], the “% Relative RhoGTPase Activity” value in experiment [1] is on record as 86.2%. Moreover, the “HSP70 level, ELISA signal (absence of compounds normalized as 1.00)” value in experiment [2] (100 nM) amounted to 1.06; in experiment [2] (10uM), 1.34.

As to `COCCNC(=S)OC/C=C(\C)CC/C=C(\C)CC/C=C(\C)CCC=C(C)C` [Compound 10i, Methoxy-2′-ethyl 2E,6E,10E-geranylgeranyl thiocarbamate], the “Mean of Hippocampus CA3 Neurons Damaged” value in experiment [3] (2 mg/kg oral) was 22%. Further, the “unprenylated/total RAP1 (%)” value in experiment [4] stood at 83%. Moreover, the “HSP70 level, ELISA signal (absence of compounds normalized as 1.00)” value was 1.04 in experiment [2] (100 nM) and 1.08 in experiment [2] (10uM).

Regarding `CC(C)=CCC/C(C)=C/CC/C(C)=C/CC/C(C)=C/CCC1(C)OCCO1` [Compound 105], the “unprenylated/total RAP1 (%)” value in experiment [4] is 64%. Besides, the “% Relative RhoGTPase Activity” value in experiment [1] stood at 85.1%.

Take `CC(C)=CCC/C(C)=C/CC/C(C)=C/CC/C(C)=C/C1=N[C@@H](C)CO1` [Compound 27b, (S)-4-methyl-2-((1E,5E,9E)-2,6,10,14-tetramethylpentadeca-1,5,9,13-tetraen-1-yl)-4,5-dihydrooxazole]: the “% Relative RhoGTPase Activity” value in experiment [1] stood at 89.0%. Besides, the figures for the “HSP70 level, ELISA signal (absence of compounds normalized as 1.00)” value in experiment [2] (100 nM) and in experiment [2] (10uM) were 1.16 and 1.22, respectively.

In the case of `CCOc1cc(OCC)cc(C(=O)OC/C=C(\C)CC/C=C(\C)CC/C=C(\C)CCC=C(C)C)c1` [Compound 2i, 2E, 6E, 10E-Geranylgeranyl-3′,5′-diethoxybenzoate], the “unprenylated/total RAP1 (%)” value in experiment [4] is reported as 92%. Moreover, in experiment [1], the “% Relative RhoGTPase Activity” value came to 105.0%. Moreover, the “HSP70 level, ELISA signal (absence of compounds normalized as 1.00)” value in experiment [2] (100 nM) worked out at 1.08.

In the case of `CC(C)=CCC/C(C)=C/CC/C(C)=C/CC/C(C)=C/COC(=O)Nc1cc(Cl)c(Cl)c(Cl)c1` [Compound 7y, 3′,4′,5′-Trichlorophenyl 2E, 6E, 10E-geranylgeranyl carbamate], the “unprenylated/total RAP1 (%)” value in experiment [4] stood at 68%. For the same molecule, in experiment [1], the “% Relative RhoGTPase Activity” value turned out to be 94.4%. Further, the “HSP70 level, ELISA signal (absence of compounds normalized as 1.00)” value in experiment [2] (10uM) was 1.13.

Turning to `CC(C)=CCC/C(C)=C/CC/C(C)=C/COC(=O)NC1CCCCC1` [Compound 8f, Cyclohexyl 2E, 6E-farnesyl carbamate], in experiment [1], the “% Relative RhoGTPase Activity” value is reported as 104.6%. Also, the “HSP70 level, ELISA signal (absence of compounds normalized as 1.00)” value in experiment [2] (10uM) was 1.29.

Turning to `COC(=O)[C@@H](NC(=O)OC(C)CC/C=C(\C)CC/C=C(\C)CCC=C(C)C)C(C)C` (stereo partly drawn) [Compound 20j, 5E,9E-farnesyl prop-2-yl Methyl 2-(S)-(−)-3-methylbutyrate Carbamate], the “unprenylated/total RAP1 (%)” value in experiment [4] is reported as 59%. The “% Relative RhoGTPase Activity” value in experiment [1] is 85.9%.

For `CCOC(=O)CNC(=S)OC/C=C(\C)CC/C=C(\C)CC/C=C(\C)CCC=C(C)C` [Compound 10d, Ethoxycarbonylmethyl 2E,6E,10E-geranylgeranyl thiocarbamate], the “Mean of Hippocampus CA3 Neurons Damaged” value in experiment [3] (2 mg/kg oral) is 14%. The “unprenylated/total RAP1 (%)” value in experiment [4] worked out at 62%. For the same molecule, the “HSP70 level, ELISA signal (absence of compounds normalized as 1.00)” value in experiment [2] (10uM) is 1.36.

For the molecule `CC(C)=CCC/C(C)=C/CC/C(C)=C/CC/C(C)=C/COC(=S)NC1CC1` [Compound 10f, Cyclopropyl 2E,6E,10E-geranylgeranyl thiocarbamate], in experiment [3] (20 mg/kg oral), the “Mean of Hippocampus CA3 Neurons Damaged” value amounted to 16%. For the same molecule, the “unprenylated/total RAP1 (%)” value in experiment [4] is 40%. Besides, in experiment [2] (10uM), the “HSP70 level, ELISA signal (absence of compounds normalized as 1.00)” value came out at 1.57.

Turning to `C=CCNC(=O)OC/C=C(\C)CC/C=C(\C)CCC=C(C)C` [Compound 8j, Allyl 2E, 6E-farnesyl carbamate], in experiment [1], the “% Relative RhoGTPase Activity” value was 105.6%. The “HSP70 level, ELISA signal (absence of compounds normalized as 1.00)” value in experiment [2] (10 nM) is reported as 1.13; in experiment [2] (10uM), 1.31.

With `CC(C)=CCC/C(C)=C/CC/C(C)=C/CC/C(C)=C/C1=N[C@@H](C(C)C)CO1` [Compound 27a, (S)-4-isopropyl-2-((1E,5E,9E)-2,6,10,14-tetramethylpentadeca-1,5,9,13-tetraen-1-yl)-4,5-dihydrooxazole], the “Mean of Hippocampus CA3 Neurons Damaged” value in experiment [3] (2 mg/kg oral) is listed as 11%. Further, the “unprenylated/total RAP1 (%)” value in experiment [4] was 96%. For the same molecule, in experiment [2] (100 nM), the “HSP70 level, ELISA signal (absence of compounds normalized as 1.00)” value is reported as 1.02.

In the case of `CC(C)=CCC/C(C)=C/CC/C(C)=C/COC(=O)Nc1ccccc1` [Compound 8o, Phenyl 2E, 6E-farnesyl carbamate], the “% Relative RhoGTPase Activity” value in experiment [1] is 82.1%. Besides, the “HSP70 level, ELISA signal (absence of compounds normalized as 1.00)” value in experiment [2] (10uM) is reported as 0.99.

Turning to `CNC(=S)OC/C=C(\C)CC/C=C(\C)CCC=C(C)C` [Compound 43, O-((2E,6E)-3,7,11-trimethyldodeca-2,6,10-trien-1-yl) methylcarbamothioate], in experiment [1], the “% Relative RhoGTPase Activity” value came to 102.7%. For the same molecule, the “HSP70 level, ELISA signal (absence of compounds normalized as 1.00)” value in experiment [2] (10uM) is on record as 0.95.

For `CCOC(=O)CCNC(=O)OC/C=C(\C)CC/C=C(\C)CCC=C(C)C` [Compound 8m, Carboethoxy-2′-ethyl 2E, 6E-farnesyl carbamate], in experiment [1], the “% Relative RhoGTPase Activity” value turned out to be 111.4%. The “HSP70 level, ELISA signal (absence of compounds normalized as 1.00)” value in experiment [2] (10uM) amounted to 1.05.

Regarding `CCC(C)NC(=O)OC/C=C(\C)CC/C=C(\C)CCC=C(C)C` (stereo not drawn) [Compound 8g, Sec-Butyl 2E, 6E-farnesyl carbamate], the “% Relative RhoGTPase Activity” value in experiment [1] was 111.3%. Also, the results for the “HSP70 level, ELISA signal (absence of compounds normalized as 1.00)” value in experiment [2] (10 nM) and in experiment [2] (10uM) were 1.17 and 1.51, respectively.

The values are drawn from patent publication US20150025077A1 (COYOTE PHARMACEUTICALS, INC., priority 2012, published 2015).
